Reference: ChEMBL document CHEMBL5143521, “Identification of a selective BRD4 PROTAC with potent antiproliferative effects in AR-positive prostate cancer based on a dual BET/PLK1 inhibitor” (Eur J Med Chem, 2022)
Calls of active or inactive are those of the source. The calls are words filed in the database; no cut-off is given here.

Legend:
LNCaP = assay: Antiproliferative activity against AR-positive harmone sensitive human LNCaP cells assessed as reduction in cell viability at 100 to 300 nM incubated for 3 days followed by compound washout and measured after 8 days; format: functional; conditions: dose 100-300 nM, time 3 day
[1] = target: T1, Protein cereblon/Bromodomain-containing protein 4 (Homo sapiens) (UniProt O60885+Q96SW2); assay: Protac activity at BRD4/CRBN in AR-positive human 22Rv1 cells assessed as degradation of BRD4 at 100 nM measured after 3 hrs in presence of cycloheximide by Western blot analysis; format: cell-based
[2] = target: T1, Protein cereblon/Bromodomain-containing protein 4 (Homo sapiens); assay: Protac activity at BRD4/CRBN in AR-positive human 22Rv1 cells assessed as degradation of BRD4 by measuring downregulation of BRD4 expression level at 1 nM by Western blot analysis; format: cell-based; conditions: time 2-48 hrs, TDE = time-dependent effect
[3] = target: T1, Protein cereblon/Bromodomain-containing protein 4 (Homo sapiens); assay: Protac activity at BRD4/CRBN in AR-negative human castration resistant DU-145 cells assessed as degradation of BRD4 by measuring downregulation of BRD4 expression level at 1 nM by Western blot analysis; format: cell-based; conditions: time 2-48 hrs, TDE = time-dependent effect
CWR22R [4] = assay: Antiproliferative activity against AR-positive human 22Rv1 cells assessed as reduction in cell viability measured after 4 days by MTT assay; format: functional, cell-based; conditions: 22Rv1, 96 h
VCaP = assay: Downregulation of PSA gene expression in AR-positive human VCaP cells at 100 nM measured after 24 hrs by RT-qPCR analysis; format: functional, cell-based
CWR22R [5] = assay: Induction of apoptosis in AR-positive human 22Rv1 cells assessed as increase in early apoptotic cells measured after 72 hrs by Annexin V-FITC/PI staining based flow cytometry method; format: functional, cell-based; conditions: dose 100-1000 nM, DDE = dose-dependent effect
DU-145 = assay: Antiproliferative activity against AR-negative human castration resistant DU-145 cells assessed as reduction in cell viability measured after 4 days by MTT assay; format: functional, cell-based; conditions: DU-145, 96 h
PC-3 = assay: Antiproliferative activity against AR-negative human castration resistant PC-3 cells assessed as reduction in cell viability measured after 4 days by MTT assay; format: functional, cell-based; conditions: PC-3, 96 h
CWR22R [6] = assay: Induction of cell cycle arrest in AR-positive human 22Rv1 cells assessed as downregulation of cyclin D1 expression at 100 to 1000 nM measured after 72 hrs by Western blot analysis; format: functional, cell-based; conditions: dose 100-1000 nM
MV4-11 = assay: Antiproliferative activity against human MV4-11 cells assessed as reduction in cell viability measured after 4 days by MTT assay; format: functional, cell-based; conditions: MV4-11, 96 h
[7] = target: T1, Protein cereblon/Bromodomain-containing protein 4 (Homo sapiens); assay: Protac activity at BRD4/CRBN in AR-positive human VCaP cells assessed as degradation of BRD4 by measuring downregulation of BRD4 expression level measured after 24 hrs by Western blot analysis; format: cell-based; conditions: dose 1-10000 nM, DDE = dose-dependent effect

T1 sequence (Q96SW2 whole entry, looked up, other chains not shown): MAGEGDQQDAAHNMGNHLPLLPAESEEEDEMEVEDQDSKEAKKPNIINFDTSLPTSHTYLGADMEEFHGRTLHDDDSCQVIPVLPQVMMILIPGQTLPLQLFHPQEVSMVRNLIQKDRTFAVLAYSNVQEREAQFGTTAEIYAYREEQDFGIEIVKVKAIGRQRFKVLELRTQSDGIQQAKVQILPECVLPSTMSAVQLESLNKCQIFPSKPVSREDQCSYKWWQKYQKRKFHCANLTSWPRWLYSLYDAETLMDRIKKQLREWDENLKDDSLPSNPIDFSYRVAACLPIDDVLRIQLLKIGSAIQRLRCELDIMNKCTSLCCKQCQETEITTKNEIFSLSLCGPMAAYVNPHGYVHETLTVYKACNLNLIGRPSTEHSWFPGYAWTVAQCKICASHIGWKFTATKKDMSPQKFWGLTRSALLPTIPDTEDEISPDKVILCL

CC[C@@H]1c2nnc(C)n2-c2cnc(Nc3ccc(C(=O)NC4CCN(C(=O)COc5cccc6c5C(=O)N(C5CCC(=O)NC5=O)C6=O)CC4)cc3OC)nc2N1CC1CCCCC1 (some centres not stated)
inhibition (INH) (LNCaP): 100%
Activity [1]: Active
Activity [2]: Tde
Activity [3]: Tde
IC50 (CWR22R [4]): 53 nM
Activity (VCaP): Active
Activity (CWR22R [5]): Dde
IC50 (DU-145): 10000 nM
IC50 (PC-3): 2440 nM
Activity (CWR22R [6]): Active
IC50 (MV4-11): 3 nM
Activity [7]: Dde
